Data on four compounds can be found in patent publication US20240083875A1, “DIHYDROISOQUINOLINYL DERIVATIVES” (UCB BIOPHARMA SRL, priority 2020, published 2024).

In one assay the target is T1, dopamine D1 receptor (Homo sapiens, UniProt P21728).
T1 construct: host or cells: LMtk (Ltk-) mouse fibroblast cells
The experiment in a line: cAMP HTRF potentiation assay (PAM, in the presence of EC20 dopamine). Format: cell-based. The following applies: for Erel (%): maximal % potentiation relative to dopamine maximal response (100%), EC20 dopamine, LMtk cells expressing D1 receptor; for EC50: potentiation of cAMP levels with EC20 dopamine (1.1 nM), LMtk mouse fibroblast cells expressing D1 receptor. How it is done: The potentiation assay measures the ability of compounds to increase the levels of cAMP produced by a low-threshold concentration of dopamine. The concentration of dopamine used ([EC20]) is designed to produce 20% stimulation compared to the maximal response (100%) seen with increasing the concentration of dopamine. To measure this potentiation increasing concentrations of the compound with the [EC20] of dopamine are incubated and the potentiation is measured as increases in cAMP production and concentration of compound which produces 50% of the potentiation of the cAMP levels is measured.
Cells were cultured at 37° C. in a humidified atmosphere of 5% CO2. Cells were grown in DMEM-F12+GlutaMAX™-I medium (GIBCO®, Invitrogen, Merelbeke, Belgium) containing 10% fetal bovine serum (BioWhittaker®, Lonza, Verviers, Belgium), 400 μg/mL Geneticin (GIBCO®), 100 IU/mL Penicillin and 100 IU/mL Streptomycin (Pen-Strep solution, BioWhittaker®).
The measurement of changes in intracellular cyclic adenosinemonophopshpate (cAMP) was determined using the HTRF cAMP dynamic assay kit from CisBio (Codolet, France). Using homogenous time-resolved fluoresence technology, the assay is based on competition between native cAMP produced by cells and cAMP labelled with the dye d2. The tracer binding is determined by an anti-cAMP antibody labeled with cryptate. The effects of the compound alone (agonism) was determined by performing the assay in the absence of dopamine, whilst the effect of the compound as a positive allosteric modulator (PAM) was determined in the presence of an EC20 concentration of dopamine. Cells (20,000 per well) are incubated in 384 plates for 1 hour at room temperature in a final volume of 20 μLHBSS (Lonza, with calcium, magnesium and HEPES buffer 20 mM, pH 7.4) containing: isobutyl methylxanthine (Sigma, 0.1 mM final), varying concentrations of test compound (typically 10^−9.5M to […]) in the presence and absence of dopamine (1.1 nM final). The reaction is then terminated and the cells lysed by adding the d2 detection reagent in lysis buffer (10 microL) and the cryptate reagent in lysis buffer (10 microl) according to manufacturer's instructions. This is then incubated for a further 60 min at room temperature and changes in HTRF fluorescent emission ratio determined according to manufacturer's instructions using an Envision plate reader (Perkin Elmer, Zaventem, Belgium) with laser excitation. All incubations were performed in duplicate and results were compared to a concentration-effect curve to dopamine. (10^−11 M to 10^−6 M).
Data was analyzed using Excel and PRISM (GraphPad Software) to obtain pEC50 and Erel using the 4-parameter logistic equation (DeLean et al, 1978) where Erel is the fitted maximal response of the test compound minus basal expressed as a percentage relative to that obtained with dopamine which was defined as 100%.
The pEC50 of a compound is the −log10 of the concentration of the compound which produces 50% of the potentiation of the cAMP levels.
The Erel is the relative efficacy, defined as the maximal % potentiation produced by the compound compared to the maximal response produced by increasing concentrations of dopamine (Erel of 1=dopamine maximum response), has been measured.
In general terms: In TR-FRET formats the signal depends on donor and acceptor labels being close together.

Assay [1] deals with T2, human GABAA receptor α1, β2 and γ2 subunits (Homo sapiens, UniProt P14867+P18507+P47870).
T2 construct: expressed in transfected cells
The experiment in a line: Automated patch clamp studies on the GABAA receptor (IonFlux HT). Format: cell-based. The following applies: 10 μM compound; 15 μM GABA as agonist; CHO-K1 cells expressing human GABAA α1β2γ2. The procedure: CHO-K1 cells stably expressing human GABAA receptor α1, β2 and γ2 subunits were used. The cells were harvested using trypsin and maintained in serum-free medium at room temperature. The cells were washed and re-suspended in extracellular solution before testing.
Experiments on human GABAA (α1β2γ2) channels were conducted using an automated patch clamp assay (IonFlux™ HT). Compounds were tested at 3 concentrations (0.1, 1, and 10 μM) in 3 to 4 cells. The external solution for recording GABAA currents was composed of sodium chloride 137 mM, potassium chloride 4 mM, calcium chloride 1.8 mM, magnesium chloride 1 mM, HEPES 10 mM, and glucose 10 mM. Both external and internal solutions were titrated with NaOH or KOH to obtain a pH of 7.35 or 7.3, respectively. The internal pipette solution contained potassium fluoride 70 mM, potassium chloride 60 mM, sodium chloride 70 mM, HEPES 5 mM, EGTA 5 mM, and Magnesium ATP 4 mM. The final concentration of vehicle used to dilute compounds was 0.33% DMSO in each well. Bicuculline (0.032 to 100 μM) was used as positive control inhibitor. GABA (15 μM) was used as agonist. All recordings were obtained from a holding potential of −60 mV.
The compound addition sequence was the following: one addition of the EC80 concentration of GABA was added to establish baseline response. Each concentration of compound was applied for 30 seconds followed by the addition of 15 μM GABA in the presence of the compound for 2 seconds. The process was repeated with the next ascending concentration of compound. Peak inward currents in response to the GABA additions in the presence of a single concentration of compound were measured. All compound data have been normalized to the baseline peak current induced by addition of 15 μM GABA for 2 seconds.

By EC50 is commonly meant the midpoint of the concentration-response curve. The term inhibition denotes the change of the read-out against control, counted positive when it falls. Read a low inhibition as a response near the control.

T1 sequence (P21728 whole entry): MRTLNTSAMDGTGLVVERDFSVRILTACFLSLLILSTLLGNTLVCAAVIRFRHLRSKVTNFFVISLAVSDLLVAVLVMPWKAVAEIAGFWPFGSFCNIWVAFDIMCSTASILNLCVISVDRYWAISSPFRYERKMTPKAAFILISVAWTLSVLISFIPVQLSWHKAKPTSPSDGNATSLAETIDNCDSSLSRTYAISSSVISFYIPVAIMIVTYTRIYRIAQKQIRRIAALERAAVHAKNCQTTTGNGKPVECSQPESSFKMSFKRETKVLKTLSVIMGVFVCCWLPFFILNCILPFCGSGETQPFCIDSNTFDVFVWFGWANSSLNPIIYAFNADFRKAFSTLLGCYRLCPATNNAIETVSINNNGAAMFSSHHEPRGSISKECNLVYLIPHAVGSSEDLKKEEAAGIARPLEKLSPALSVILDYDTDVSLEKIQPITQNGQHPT
T2 sequence (P14867 28-456): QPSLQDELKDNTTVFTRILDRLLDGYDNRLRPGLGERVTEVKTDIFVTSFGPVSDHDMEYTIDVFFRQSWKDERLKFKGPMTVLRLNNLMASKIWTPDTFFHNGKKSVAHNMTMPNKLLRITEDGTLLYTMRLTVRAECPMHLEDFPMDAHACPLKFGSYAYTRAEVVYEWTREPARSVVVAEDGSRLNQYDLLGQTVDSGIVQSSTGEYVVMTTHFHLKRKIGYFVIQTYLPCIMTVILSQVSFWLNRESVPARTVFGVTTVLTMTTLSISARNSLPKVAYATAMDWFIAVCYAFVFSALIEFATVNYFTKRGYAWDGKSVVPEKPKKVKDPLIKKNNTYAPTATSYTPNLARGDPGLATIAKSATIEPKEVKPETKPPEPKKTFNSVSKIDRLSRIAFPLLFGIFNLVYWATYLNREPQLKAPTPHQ
T2 sequence (P47870 25-512 limits assumed): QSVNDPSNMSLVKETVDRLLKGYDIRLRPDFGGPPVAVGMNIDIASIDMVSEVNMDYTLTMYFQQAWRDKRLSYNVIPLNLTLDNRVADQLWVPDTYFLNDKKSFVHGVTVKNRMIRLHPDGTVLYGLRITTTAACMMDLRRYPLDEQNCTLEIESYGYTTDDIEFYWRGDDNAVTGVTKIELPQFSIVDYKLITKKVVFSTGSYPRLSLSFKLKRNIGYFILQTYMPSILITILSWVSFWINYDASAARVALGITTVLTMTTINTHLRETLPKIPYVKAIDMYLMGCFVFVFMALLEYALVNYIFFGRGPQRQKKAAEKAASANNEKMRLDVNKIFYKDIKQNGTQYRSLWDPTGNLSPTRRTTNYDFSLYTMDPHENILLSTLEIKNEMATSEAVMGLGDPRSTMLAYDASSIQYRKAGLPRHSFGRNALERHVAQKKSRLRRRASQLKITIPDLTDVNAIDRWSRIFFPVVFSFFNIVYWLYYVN
T2 sequence (P18507 40-475): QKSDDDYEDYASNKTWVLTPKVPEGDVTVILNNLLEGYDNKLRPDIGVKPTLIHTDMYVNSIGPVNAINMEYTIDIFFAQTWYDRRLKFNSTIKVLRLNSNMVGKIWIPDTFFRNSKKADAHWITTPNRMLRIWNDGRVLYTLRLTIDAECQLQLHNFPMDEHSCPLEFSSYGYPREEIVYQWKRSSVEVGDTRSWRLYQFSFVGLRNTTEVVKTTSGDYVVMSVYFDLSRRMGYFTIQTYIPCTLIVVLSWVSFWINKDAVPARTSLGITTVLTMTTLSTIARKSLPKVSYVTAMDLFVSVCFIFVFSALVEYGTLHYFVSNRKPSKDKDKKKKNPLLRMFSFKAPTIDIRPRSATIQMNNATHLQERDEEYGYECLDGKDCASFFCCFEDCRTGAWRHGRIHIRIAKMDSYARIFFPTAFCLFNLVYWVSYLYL

Regarding `C[C@H]1c2cccc(-c3cn[nH]c3)c2C[C@H](CO)N1C(=O)Cc1c(Cl)ccc2c1c(Cl)nn2C` [Example 2, 2-(3,5-dichloro-1-methyl-indazol-4-yl)-1-[(1S,3R)-3-(hydroxymethyl)-1-methyl-5-(1H-pyrazol-4-yl)-3,4-dihydro-1H-isoquinolin-2-yl]ethanone], on dopamine D1 receptor, the “Erel (%)” value is given as 71% and the half-maximal effective concentration (EC50) was 6.31 nM. Moreover, testing at 10 µM in assay [1] gave an inhibition of 0%.
For `C[C@H]1c2cccc(-c3cn[nH]c3)c2C[C@H](CO)N1C(=O)Cc1c(Cl)ccc2[nH]nc(Cl)c12` [Example 3, 2-(3,5-dichloro-1H-indazol-4-yl)-1-[(1S,3R)-3-(hydroxymethyl)-1-methyl-5-(1H-pyrazol-4-yl)-3,4-dihydro-1H-isoquinolin-2-yl]ethanone] the same measures were 61%, 6.31 nM and 7.8%.
Consider `C[C@H]1c2cccc(-c3cnn(C)c3)c2C[C@H](CO)N1C(=O)Cc1c(Cl)ccc2c1c(Cl)nn2C` [Example 1, 2-(3,5-dichloro-1-methyl-indazol-4-yl)-1-[(1S,3R)-3-(hydroxymethyl)-1-methyl-5-(1-methylpyrazol-4-yl)-3,4-dihydro-1H-isoquinolin-2-yl]ethanone], for which, at dopamine D1 receptor, the “Erel (%)” value turned out to be 74% and the half-maximal effective concentration (EC50) is 12.6 nM. Moreover, the inhibition at 10 µM in assay [1] came out at 2.7%.
Consider `C[C@H]1c2cccc(-c3cnn(C)c3)c2C[C@H](CO)N1C(=O)Cc1c(Cl)ccc2[nH]nc(Cl)c12` [Example 4, 2-(3,5-dichloro-1H-indazol-4-yl)-1-[(1S,3R)-3-(hydroxymethyl)-1-methyl-5-(1-methylpyrazol-4-yl)-3,4-dihydro-1H-isoquinolin-2-yl]ethanone], for which, on dopamine D1 receptor, the “Erel (%)” value was found to be 63% and the concentration for a half-maximal effect (EC50) was 7.94 nM. 10 µM produced 10.1% inhibition in assay [1].
